Assay results published in patent publication US20220340547A1, “INDOLE DERIVATIVE-CONTAINING INHIBITOR, PREPARATION METHOD THEREFOR AND APPLICATION THEREOF” (Shanghi Hansoh Biosoh Biomedical Co., Ltd., priority 2019, published 2022).

Tests used:
EGFR D770_N771insNPG = EGFR D770_N771insNPG (Homo sapiens, UniProt P00533, INS770NPG); test: TR-FRET inhibition of kinase activity of EGFR exon 20 insertion mutation; assay type: biochemical
Excerpt: Determination of the Inhibitory Effect of the Compound of the Present Invention on the Kinase Activity of EGFR Exon 20 Insertion Mutation
Experimental objective: The objective of this test example is to determine the inhibitory effect of the compound on the kinase activity of EGFR exon 20 insertion mutation.
Experimental process: The experiment applied the TR-FRET (time-resolved fluorescence resonance energy transfer) method to study the inhibitory effect of the compound on the kinase activity of EGFR exon 20 insertion mutation. The experiment was carried out in a 384-well plate. Experimental buffer (50 mM HEPES, 1 mM EGTA, 10 mM MgCl2, 2 mM DTT, 0.01% Tween-20) was formulated. The compound was diluted in gradient to different concentrations with the experimental buffer. 2.5 μL of the solution was added to each well of the 384-well plate. 2.5 μL of diluted EGFR kinase solution (0.001-0.5 nM) was added, and the plate was incubated at room temperature for 10 minutes. 5 μL of ULight-poly GT/ATP mixed solution was added, and the plate was incubated at room temperature for 30 to 60 minutes. 5 μL of EDTA stop solution and 5 μL of Eu-labeled antibody detection solution were added, and the plate was incubated at room temperature for 1 hour.
(§1) Experimental Data Processing Method:
The concentration and inhibition rate were fitted to a nonlinear regression curve by Graphpad Prism software to obtain the IC50 value.

[1] = biological target: Ba/F3 EGFR-D770-N771ins_SVD (Homo sapiens, UniProt P00533, DUP768-770, cells depend on it); test: Proliferation of Ba/F3 EGFR mutant cell line (CellTiter-Glo); assay type: cell-based, mouse; conditions: 72 h to 144 h, read-out: Ba/F3 EGFR-D770-N771ins_SVD IC50
Sequence of Ba/F3 EGFR-D770-N771ins_SVD (P00533 with tags, fused parts or gaps DUP768-770): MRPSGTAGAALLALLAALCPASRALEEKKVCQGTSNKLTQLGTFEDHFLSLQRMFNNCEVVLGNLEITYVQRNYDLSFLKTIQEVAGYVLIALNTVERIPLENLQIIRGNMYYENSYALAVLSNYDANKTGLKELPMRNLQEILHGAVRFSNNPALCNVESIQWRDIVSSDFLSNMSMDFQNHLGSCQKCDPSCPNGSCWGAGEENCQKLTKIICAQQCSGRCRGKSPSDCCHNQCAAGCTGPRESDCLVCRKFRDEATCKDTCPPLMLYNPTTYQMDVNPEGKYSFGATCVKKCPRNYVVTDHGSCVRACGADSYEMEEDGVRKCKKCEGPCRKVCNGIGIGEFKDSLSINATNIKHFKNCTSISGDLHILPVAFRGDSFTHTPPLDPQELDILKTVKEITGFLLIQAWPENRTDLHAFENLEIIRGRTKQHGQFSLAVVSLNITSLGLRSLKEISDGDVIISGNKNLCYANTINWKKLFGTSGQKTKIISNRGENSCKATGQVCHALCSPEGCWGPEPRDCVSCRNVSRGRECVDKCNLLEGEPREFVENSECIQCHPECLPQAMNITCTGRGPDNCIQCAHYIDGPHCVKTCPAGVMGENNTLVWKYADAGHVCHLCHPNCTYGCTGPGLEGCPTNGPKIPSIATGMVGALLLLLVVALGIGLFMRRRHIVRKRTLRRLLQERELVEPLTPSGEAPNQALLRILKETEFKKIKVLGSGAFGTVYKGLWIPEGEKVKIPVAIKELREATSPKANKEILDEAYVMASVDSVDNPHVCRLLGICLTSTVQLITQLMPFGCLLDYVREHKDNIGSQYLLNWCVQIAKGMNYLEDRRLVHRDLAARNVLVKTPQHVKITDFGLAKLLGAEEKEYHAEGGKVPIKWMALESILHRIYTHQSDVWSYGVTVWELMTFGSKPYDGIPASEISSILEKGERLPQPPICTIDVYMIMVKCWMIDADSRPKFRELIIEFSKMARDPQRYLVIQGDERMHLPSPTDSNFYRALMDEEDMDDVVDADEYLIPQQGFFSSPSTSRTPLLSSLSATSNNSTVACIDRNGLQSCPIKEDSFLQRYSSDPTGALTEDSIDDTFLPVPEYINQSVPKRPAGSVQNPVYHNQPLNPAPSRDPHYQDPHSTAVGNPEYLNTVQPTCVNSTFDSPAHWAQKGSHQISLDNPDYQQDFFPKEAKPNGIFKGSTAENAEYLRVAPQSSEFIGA
Description: Determination of the Inhibitory Effect of the Compound of the Present Invention on the Proliferation of Ba/F3 EGFR Mutant Cell Line and A431 Cell Line
(§2) Experimental objective: The objective of this test example is to determine the inhibitory effect of the compound on the proliferation of Ba/F3 EGFR mutant cell line and A431 cell line
(§3) Experimental instruments: Microplate reader (BioTek Synergy H1), pipette (Eppendorf & Rainin).
Ba/F3 EGFR mutant cells were cultured, and harvested after reaching a suitable density. The cells were adjusted to an appropriate cell concentration with the complete medium. The cell suspension were spread on a 96-well plate (90 μL per well), and the plate was placed in a 37° C., 5% CO2 incubator overnight to let the cells adhere to the wall. Solutions of the compound at different concentrations were formulated with DMSO and culture medium. Solvent control was set. […] CellTiter-Glo solution was added and mixed well by shaking, and the plate was incubated in the dark for 10 minutes. The values were measured by BioTek Synergy H1 microplate reader.
as §1
(§4) The inhibition rate was calculated using the […] signal value. The concentration and inhibition rate were fitted to a nonlinear regression curve by Graphpad Prism software to obtain the IC50 value.

A431 cell line = test: Proliferation of A431 cell line (CellTiter-Glo); assay type: cell-based; conditions: Homo sapiens, A-431, 72 h
Description: Test Example 3. Determination of the Inhibitory Effect of the Compound of the Present Invention on the Proliferation of Ba/F3 EGFR Mutant Cell Line and A431 Cell Line
as §2, §3
A431 cells were cultured, and harvested after reaching a suitable density. The cells were adjusted to an appropriate cell concentration with the complete medium. The cell suspension were spread on a 96-well plate (90 μL per well), and the plate was placed in a 37° C., 5% CO2 incubator overnight to let the cells adhere to the wall. Solutions of the compound at different concentrations were formulated with DMSO and culture medium. Solvent control was set. The solution of the compound was added to the 96-well plate ([…]), and the plate was incubated in the 37° C., 5% CO2 incubator for 72 h. CellTiter-Glo solution was added and mixed well by shaking, and the plate was incubated in the dark for 10 minutes. The values were measured by BioTek Synergy H1 microplate reader.
as §1, §4

Sequence of EGFR D770_N771insNPG (P00533 with tags, fused parts or gaps INS770NPG limits assumed): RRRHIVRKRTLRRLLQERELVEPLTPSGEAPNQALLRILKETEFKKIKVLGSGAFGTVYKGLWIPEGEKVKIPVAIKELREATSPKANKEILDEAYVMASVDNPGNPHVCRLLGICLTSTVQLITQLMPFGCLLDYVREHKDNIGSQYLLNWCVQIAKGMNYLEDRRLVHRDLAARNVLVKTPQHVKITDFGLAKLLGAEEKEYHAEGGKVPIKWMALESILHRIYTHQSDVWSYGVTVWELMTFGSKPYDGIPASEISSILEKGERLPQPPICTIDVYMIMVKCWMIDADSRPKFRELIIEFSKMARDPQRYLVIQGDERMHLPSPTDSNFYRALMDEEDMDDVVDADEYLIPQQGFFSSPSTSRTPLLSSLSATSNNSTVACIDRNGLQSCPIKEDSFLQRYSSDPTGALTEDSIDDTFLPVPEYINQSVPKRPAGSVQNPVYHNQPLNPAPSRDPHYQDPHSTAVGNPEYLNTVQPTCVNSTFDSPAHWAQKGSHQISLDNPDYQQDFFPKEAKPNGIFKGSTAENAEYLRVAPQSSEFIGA

| SMILES | IC50 (EGFR D770_N771insNPG) | GI50 [1] | IC50 (A431 cell line) |
| --- | --- | --- | --- |
| C=CC(=O)Nc1cc(Nc2ncc(-c3ncco3)c(-c3cn(C4CC4)c4ccccc34)n2)c(OC)cc1N1C[C@@H]2CCN(C)[C@@H]2C1 (relative stereo) [Example 40, Cis N-(5-((4-(1-Cyclopropyl-1H-indol-3-yl)-5-(oxazol-2-yl)pyrimidin-2-yl)amino)-4-methoxy-2-(1-methylhexahydropyrrolo[3,4-b]pyrrol-5(1H)-yl)phenyl)acrylamide] | 0.55 nM | 34.6 nM | 133 nM |
| C=CC(=O)Nc1cc(Nc2ncc(C#N)c(-c3cn(C4CC4)c4ccccc34)n2)c(OC)cc1N1C[C@H]2CN(C)C[C@H]2C1 [Example 35, N-(5-((5-Cyano-4-(1-cyclopropyl-1H-indol-3-yl)pyrimidin-2-yl)amino)-4-methoxy-2-((3aR,6aS)-5-methylhexahydropyrrolo[3,4-c]pyrrol-2(1H)-yl)phenyl)acrylamide] | 0.43 nM | 24.8 nM | 162 nM |
| C=CC(=O)Nc1cc(Nc2ncc(-c3ncco3)c(-c3cn(C4CC4)c4ccccc34)n2)c(OC)cc1N1C[C@H]2CN(C)C[C@H]2C1 [Example 36, N-(5-((4-(1-Cyclopropyl-1H-indol-3-yl)-5-(oxazol-2-yl)pyrimidin-2-yl)amino)-4-methoxy-2-((3aR,6aS)-5-methylhexahydropyrrolo[3,4-c]pyrrol-2(1H)-yl)phenyl)acrylamide] | – | 27.1 nM | 439 nM |
| C=CC(=O)Nc1cc(Nc2ncc(-c3ncco3)c(-c3cn(C4CC4)c4ccccc34)n2)c(OC)cc1N(C)CC1CCCN1C (centres unmarked) [Example 38, N-(5-((4-(1-Cyclopropyl-1H-indol-3-yl)-5-(oxazol-2-yl)pyrimidin-2-yl)amino)-4-methoxy-2-(methyl((1-methylpyrrolidin-2-yl)methyl)amino)phenyl)acrylamide] | 0.45 nM | 34.6 nM | 146 nM |
| C=CC(=O)Nc1cc(Nc2ncc(-c3nccs3)c(-c3cn(C4CC4)c4ccccc34)n2)c(OC)cc1N1C[C@H]2CN(C)C[C@H]2C1 [Example 45, N-(5-((4-(1-Cyclopropyl-1H-indol-3-yl)-5-(thiazol-2-yl)pyrimidin-2-yl)amino)-4-methoxy-2-((3aR,6aS)-5-methylhexahydropyrrolo[3,4-c]pyrrol-2(1H)-yl)phenyl)acrylamide] | 1 nM | 53.4 nM | 210 nM |
| C=CC(=O)Nc1cc(Nc2ncc(-c3ccccc3)c(-c3cn(C4CC4)c4ccccc34)n2)c(OC)cc1N1C[C@H]2CN(C)C[C@H]2C1 [Example 47, N-(5-((4-(1-Cyclopropyl-1H-indol-3-yl)-5-phenylpyrimidin-2-yl)amino)-4-methoxy-2-((3aR,6aS)-5-methylhexahydropyrrolo[3,4-c]pyrrol-2(1H)-yl)phenyl)acrylamide] | – | 33.1 nM | 51.7 nM |
| C=CC(=O)Nc1cc(Nc2ncc(-c3ncco3)c(-c3cn(C4CC4)c4ccccc34)n2)c(OC)cc1N1CC(N(C)C)C1 [Example 52, N-(5-((4-(1-Cyclopropyl-1H-indol-3-yl)-5-(oxazol-2-yl)pyrimidin-2-yl)amino)-2-(3-(dimethylamino)azetidin-1-yl)-4-methoxyphenyl)acrylamide] | 0.79 nM | 34.9 nM | 306 nM |
| C=CC(=O)Nc1cc(Nc2ncc(-c3ncco3)c(-c3cn(C4CC4)c4ccccc34)n2)c(OC)cc1N1CC(N2CCCC2)C1 [Example 53, N-(5-((4-(1-Cyclopropyl-1H-indol-3-yl)-5-(oxazol-2-yl)pyrimidin-2-yl)amino)-4-methoxy-2-(3-(pyrrolidin-1-yl)azetidin-1-yl)phenyl)acrylamide] | 0.5 nM | 21.7 nM | 182 nM |
| C=CC(=O)Nc1cc(Nc2ncc(-c3ncco3)c(-c3cn(C4CC4)c4ccccc34)n2)c(OC)cc1N1CC[C@H](N(C)C)C1 [Example 56, (S)—N-(5-((4-(1-Cyclopropyl-1H-indol-3-yl)-5-(oxazol-2-yl)pyrimidin-2-yl)amino)-2-(3-(dimethylamino)pyrrolidin-1-yl)-4-methoxyphenyl)acrylamide] | – | 45.3 nM | 144 nM |
| C=CC(=O)Nc1cc(Nc2ncc(-c3ncco3)c(-c3cn(C4CC4)c4ccccc34)n2)c(OC)cc1N1CC[C@@H](N(C)C)C1 [Example 57, (R)—N-(5-((4-(1-Cyclopropyl-1H-indol-3-yl)-5-(oxazol-2-yl)pyrimidin-2-yl)amino)-2-(3-(dimethylamino)pyrrolidin-1-yl)-4-methoxyphenyl)acrylamide] | 0.82 nM | 28.1 nM | 113 nM |
| C=CC(=O)Nc1cc(Nc2ncc(-c3cccnc3)c(-c3cn(C4CC4)c4ccccc34)n2)c(OC)cc1N1C[C@H]2CN(C)C[C@H]2C1 [Example 64, N-(5-((4-(1-Cyclopropyl-1H-indol-3-yl)-5-(pyridin-3-yl)pyrimidin-2-yl)amino)-4-methoxy-2-((3aR,6aS)-5-methylhexahydropyrrolo[3,4-c]pyrrol-2(1H)-yl)phenyl)acrylamide] | 0.39 nM | 17.4 nM | 28.9 nM |
| C=CC(=O)Nc1cc(Nc2ncc(-c3ccn(C)n3)c(-c3cn(C4CC4)c4ccccc34)n2)c(OC)cc1N1C[C@H]2CN(C)C[C@H]2C1 [Example 71, N-(5-((4-(1-Cyclopropyl-1H-indol-3-yl)-5-(1-methyl-1H-pyrazol-3-yl)pyrimidin-2-yl)amino)-4-methoxy-2-((3aR,6aS)-5-methylhexahydropyrrolo[3,4-c]pyrrol-2(1H)-yl)phenyl)acrylamide] | – | 54.9 nM | 238 nM |
| C=CC(=O)Nc1cc(Nc2ncc(C#N)c(-c3cn(C4CC4)c4ccccc34)n2)c(OC)cc1N1CC[C@@H](N(C)C)C1 [Example 78, (R)—N-(5-((5-Cyano-4-(1-cyclopropyl-1H-indol-3-yl)pyrimidin-2-yl)amino)-2-(3-(dimethylamino)pyrrolidin-1-yl)-4-methoxyphenyl)acrylamide] | 0.5 nM | 48.2 nM | 258 nM |
| C=CC(=O)Nc1cc(Nc2ncc(C#N)c(-c3cn(C4CC4)c4ccccc34)n2)c(OC)cc1N1C[C@H]2CCN(C)[C@H]2C1 [Example 109, N-(5-((5-Cyano-4-(1-cyclopropyl-1H-indol-3-yl)pyrimidin-2-yl)amino)-4-methoxy-2-((3aR,6aR)-1-methylhexahydropyrrolo[3,4-b]pyrrol-5(1H)-yl)phenyl)acrylamide] | 0.78 nM | 49.1 nM | 168 nM |
| C=CC(=O)Nc1cc(Nc2ncc(C#N)c(-c3cn(C4COC4)c4ccccc34)n2)c(OC)cc1N(C)CCN(C)C [Example 111, N-(5-((5-cyano-4-(1-(oxetan-3-yl)-1H-indol-3-yl)pyrimidin-2-yl)amino)-2-((2-(dimethylamino)ethyl)(methyl)amino)-4-methoxyphenyl)acrylamide] | 0.18 nM | 21.2 nM | 34.1 nM |
| C=CC(=O)Nc1cc(Nc2ncc(C#N)c(-c3cn(C4CC4)c4ccc(OC)cc34)n2)c(OC)cc1N(C)CCN(C)C [Example 118, N-(5-((5-Cyano-4-(1-cyclopropyl-5-methoxy-1H-indol-3-yl)pyrimidin-2-yl)amino)-2-((2-(dimethylamino)ethyl)(methyl)amino)-4-methoxyphenyl)acrylamide] | 0.55 nM | 45.1 nM | 201 nM |
